Source: the CheMixHub viscosity set
Where “and” joins values, the source holds several entries; their conditions need not be identical. Equal entries are not always repeated.

Assay: xn = mol fraction of the nth substance listed

Cc1ccncc1 + CCCO
298.15 K, 101.33 kPa
Details | viscosity [mPa·s]
x2 = 0.091 | 0.9024
x2 = 0.2095 | 0.9381
x2 = 0.3419 | 1.007
x2 = 0.4177 | 1.071
x2 = 0.5662 | 1.168
x2 = 0.7017 | 1.327
x2 = 0.7646 | 1.405
x2 = 0.8291 | 1.52
x2 = 0.867 | 1.591

CCCCN + NC1CCCCC1
298.15 K, 101 kPa
Details | viscosity [mPa·s]
x2 = 0.0757 | 0.6805
x2 = 0.1557 | 0.8796
x2 = 0.2401 | 1.111
x2 = 0.3296 | 1.33
x2 = 0.4244 | 1.548
x2 = 0.5252 | 1.774
x2 = 0.6324 | 1.954
x2 = 0.7468 | 2.035
x2 = 0.8691 | 1.976

O=C(O)C(Cl)(Cl)Cl + CCOC(=O)c1ccccc1
298.15 K, 101 kPa
Details | viscosity [mPa·s]
x1 = 0.08874 | 2.324
x1 = 0.2096 | 2.93
x1 = 0.3125 | 3.711
x1 = 0.3982 | 4.61
x1 = 0.4907 | 5.848
x1 = 0.5795 | 7.068
x1 = 0.6758 | 8.374

CCCCN + CCC(C)O
303.15 K, 101 kPa
Details | viscosity [mPa·s]
x1 = 0.01013 | 2.438
x1 = 0.02003 | 2.41
x1 = 0.03045 | 2.381
x1 = 0.03818 | 2.364
x1 = 0.05108 | 2.332
x1 = 0.05904 | 2.313
x1 = 0.07204 | 2.283
x1 = 0.08279 | 2.26
x1 = 0.09543 | 2.229

O=C(O)C(Cl)(Cl)Cl + CC(=O)O
298.15 K, 101 kPa
Details | viscosity [mPa·s]
x1 = 0.0737 | 1.532
x1 = 0.1777 | 2.228
x1 = 0.3209 | 3.362
x1 = 0.4348 | 4.346
x1 = 0.5262 | 5.176
x1 = 0.5853 | 5.859
x1 = 0.6581 | 6.854

CCCCN + CCOCCO
308.15 K, 101 kPa
Details | viscosity [mPa·s]
x2 = 0.0802 | 0.5335
x2 = 0.2044 | 0.6473
x2 = 0.3059 | 0.7671
x2 = 0.4065 | 0.8896
x2 = 0.5068 | 1.007
x2 = 0.6065 | 1.115
x2 = 0.7058 | 1.209
x2 = 0.9024 | 1.376

Cc1ccncc1 + CCC(C)O
298.15 K, 101.33 kPa
Details | viscosity [mPa·s]
x2 = 0.0808 | 0.8992
x2 = 0.1812 | 0.9547
x2 = 0.2378 | 0.9923
x2 = 0.3187 | 1.047
x2 = 0.3221 | 1.052
x2 = 0.3999 | 1.131
x2 = 0.4574 | 1.186
x2 = 0.5582 | 1.328
x2 = 0.6284 | 1.445
x2 = 0.7034 | 1.608
x2 = 0.8528 | 2.092
x2 = 0.9272 | 2.446

CCCCN + CC(C)CO
298.15 K, 101.32 kPa
Details | viscosity [mPa·s]
x2 = 0.1005 | 0.5513
x2 = 0.2 | 0.6546
x2 = 0.2984 | 0.7783
x2 = 0.3994 | 0.9361
x2 = 0.4997 | 1.135
x2 = 0.5998 | 1.373
x2 = 0.7007 | 1.674
x2 = 0.8122 | 2.126
x2 = 0.8939 | 2.593

Cc1ccncc1 + CCO
298.15 K, 101.33 kPa
Details | viscosity [mPa·s]
x2 = 0.119 | 0.878
x2 = 0.2179 | 0.8832
x2 = 0.3335 | 0.8963
x2 = 0.426 | 0.9084
x2 = 0.5813 | 0.9345
x2 = 0.7893 | 0.9902
x2 = 0.8494 | 1.015
x2 = 0.9031 | 1.041

O=[N+]([O-])[O-].[Ag+] + O
298.15 K, 101 kPa
Details | viscosity [mPa·s]
x1 = 0.02589 | 0.99
x1 = 0.05251 | 1.134
x1 = 0.09523 | 1.451
x1 = 0.1797 | 2.439

CCCCN + CCCCOC(C)=O
303.15 K, 101 kPa
Details | viscosity [mPa·s]
x1 = 0.21 | 0.6407
x1 = 0.2909 | 0.637
x1 = 0.4108 | 0.6349
x1 = 0.5598 | 0.6248
x1 = 0.64 | 0.6218
x1 = 0.7026 | 0.6038
x1 = 0.8413 | 0.5869
x1 = 0.9148 | 0.5794

O=C(O)[C@H](O)[C@@H](O)C(=O)O + O
298.2 K, 101.33 kPa
Details | viscosity [mPa·s]
x1 = 0.00125 | 0.9157
x1 = 0.002751 | 0.942
x1 = 0.00453 | 0.9725
x1 = 0.00652 | 0.9964
x1 = 0.008655 | 1.043
x1 = 0.01037 | 1.046
x1 = 0.01172 | 1.088

CCCC(=O)OCC + Clc1ccccc1
viscosity [mPa·s], 101.3 kPa
Details | 308.15 K | 318.15 K
x1 = 0.0537 | 0.646 | 0.596
x1 = 0.0994 | 0.637 | 0.588
x1 = 0.1869 | 0.622 | 0.574
x1 = 0.357 | 0.599 | 0.552
x1 = 0.4049 | 0.593 | 0.548
x1 = 0.4939 | 0.585 | 0.541
x1 = 0.5929 | 0.579 | 0.535
x1 = 0.6953 | 0.574 | 0.532
x1 = 0.7941 | 0.573 | 0.532
x1 = 0.9017 | 0.573 | 0.534
x1 = 0.9369 | 0.574 | 0.535

c1cc2c3c(cccc3c1)CC2 + CO
viscosity [mPa·s], 101.33 kPa
Details | 298.15 K | 303.15 K | 308.15 K | 313.15 K | 318.15 K
x1 = 0.00465 | 0.5715 | 0.5301 | 0.494 | 0.4598 | 0.436
x1 = 0.0072 | – | 0.5362 | 0.5036 | 0.4714 | 0.4405

CCCCC(CC)COP(=O)(OCC(CC)CCCC)OCC(CC)CCCC (stereo not given) + CCCCCCC
viscosity [mPa·s], 101 kPa
Details | x1 = 0.0981 | x1 = 0.2035 | x1 = 0.2861 | x1 = 0.4005 | x1 = 0.4721 | x1 = 0.5804 | x1 = 0.7028 | x1 = 0.8061 | x1 = 0.9053
298.15 K | 0.691 | 1.161 | 1.648 | 2.531 | 3.204 | 4.44 | 6.106 | 7.818 | 9.599
303.15 K | 0.645 | 1.071 | 1.509 | 2.267 | 2.848 | 3.886 | 5.277 | 6.674 | 8.111
308.15 K | 0.604 | 0.992 | 1.377 | 2.046 | 2.547 | 3.434 | 4.599 | 5.747 | 6.914

O=C(O)C(Cl)(Cl)Cl + CCCCCOC(C)=O
323.15 K, 101 kPa
Details | viscosity [mPa·s]
x2 = 0.2135 | 3.573
x2 = 0.4325 | 2.146
x2 = 0.6234 | 1.358
x2 = 0.8421 | 0.807

CCC(C)(C)C + CCCCCCCCCCCCCCCC
298 K, 101.33 kPa
Details | viscosity [mPa·s]
x1 = 0.1107 | 2.735
x1 = 0.2098 | 2.405
x1 = 0.3108 | 2.071
x1 = 0.4014 | 1.788
x1 = 0.5013 | 1.486
x1 = 0.6057 | 1.211
x1 = 0.7048 | 0.9511
x1 = 0.8022 | 0.711
x1 = 0.9014 | 0.5046

CCCC(=O)OCC + c1ccccc1
Details | viscosity [mPa·s]
303.15 K, 101.33 kPa, x2 = 0.0662 | 0.591
303.15 K, 101.33 kPa, x2 = 0.2048 | 0.581
303.15 K, 101.33 kPa, x2 = 0.3293 | 0.571
303.15 K, 101.33 kPa, x2 = 0.4394 | 0.563
303.15 K, 101.33 kPa, x2 = 0.5452 | 0.559
303.15 K, 101.33 kPa, x2 = 0.5996 | 0.555
303.15 K, 101.33 kPa, x2 = 0.6452 | 0.554
303.15 K, 101.33 kPa, x2 = 0.7372 | 0.551
303.15 K, 101.33 kPa, x2 = 0.8161 | 0.551
303.15 K, 101.33 kPa, x2 = 0.8938 | 0.554
303.15 K, 101.33 kPa, x2 = 0.9658 | 0.555
308.15 K, 101.3 kPa, x1 = 0.0473 | 0.534
308.15 K, 101.3 kPa, x1 = 0.099 | 0.531
308.15 K, 101.3 kPa, x1 = 0.1937 | 0.528
308.15 K, 101.3 kPa, x1 = 0.2987 | 0.526
308.15 K, 101.3 kPa, x1 = 0.4059 | 0.527
308.15 K, 101.3 kPa, x1 = 0.4998 | 0.529
308.15 K, 101.3 kPa, x1 = 0.5753 | 0.533
308.15 K, 101.3 kPa, x1 = 0.7021 | 0.541
308.15 K, 101.3 kPa, x1 = 0.7978 | 0.55
308.15 K, 101.3 kPa, x1 = 0.903 | 0.562
308.15 K, 101.3 kPa, x1 = 0.9514 | 0.569
313.15 K, 101.33 kPa, x2 = 0.2126 | 0.539
313.15 K, 101.33 kPa, x2 = 0.4055 | 0.521
313.15 K, 101.33 kPa, x2 = 0.507 | 0.513
313.15 K, 101.33 kPa, x2 = 0.6031 | 0.506
313.15 K, 101.33 kPa, x2 = 0.8066 | 0.496
318.15 K, 101.3 kPa, x1 = 0.0473 | 0.47
318.15 K, 101.3 kPa, x1 = 0.099 | 0.471
318.15 K, 101.3 kPa, x1 = 0.1937 | 0.472
318.15 K, 101.3 kPa, x1 = 0.2987 | 0.476
318.15 K, 101.3 kPa, x1 = 0.4059 | 0.481
318.15 K, 101.3 kPa, x1 = 0.4998 | 0.486
318.15 K, 101.3 kPa, x1 = 0.5753 | 0.491
318.15 K, 101.3 kPa, x1 = 0.7021 | 0.502
318.15 K, 101.3 kPa, x1 = 0.7978 | 0.512
318.15 K, 101.3 kPa, x1 = 0.903 | 0.525
318.15 K, 101.3 kPa, x1 = 0.9514 | 0.531

CC(=O)[O-].[NH4+] + CC(=O)[O-].CC[n+]1ccn(C)c1
101 kPa
Details | viscosity [mPa·s]
298.15 K, x1 = 0.0503 | 152.5
303.15 K, x1 = 0.1703 | 185.5

O=C([O-])CC(=O)[O-].[Na+].[Na+] + O
viscosity, 101 kPa
Details | x1 = 9e-05 | x1 = 0.00018 | x1 = 0.00027 | x1 = 0.00036
298.15 K | 0.8932 mPa·s and 0.8932 mPa·s | 0.8959 mPa·s and 0.8959 mPa·s | 0.8987 mPa·s and 0.8987 mPa·s | 0.9014 mPa·s and 0.9014 mPa·s
308.15 K | 0.7222 mPa·s and 0.7222 mPa·s | 0.7237 mPa·s and 0.7237 mPa·s | 0.7253 mPa·s and 0.7253 mPa·s | 0.7279 mPa·s and 0.7279 mPa·s
318.15 K | 0.598 mPa·s and 0.598 mPa·s | 0.6007 mPa·s and 0.6007 mPa·s | 0.6021 mPa·s and 0.6021 mPa·s | 0.6048 mPa·s and 0.6048 mPa·s
